Test: xn = mol fraction of the nth substance listed
Conditions: Liquid, Vibrating tube method

CCCCCCCCCC [decane] + O=C=O
Conditions | mass density [kg/m3]
332.94 K, 23010 kPa, x2 = 0.9663 | 775.39
332.94 K, 23014 kPa, x2 = 0.0551 | 721.3
332.94 K, 24016 kPa, x2 = 0.9663 | 784.64
332.94 K, 24025 kPa, x2 = 0.2369 | 730.17
332.94 K, 24026 kPa, x2 = 0.4536 | 743.58
332.94 K, 24057 kPa, x2 = 0.0551 | 722.11
332.94 K, 25006 kPa, x2 = 0.9663 | 793.1
332.94 K, 25022 kPa, x2 = 0.4536 | 744.71
332.94 K, 25028 kPa, x2 = 0.2369 | 731.08
332.94 K, 25048 kPa, x2 = 0.0551 | 722.92
342.79 K, 13528 kPa, x2 = 0.9663 | 503.61
342.79 K, 14029 kPa, x2 = 0.9663 | 528.33
342.79 K, 15026 kPa, x2 = 0.9663 | 569.49
342.79 K, 16019 kPa, x2 = 0.9663 | 603.24
342.79 K, 17025 kPa, x2 = 0.9663 | 631.6
342.79 K, 18035 kPa, x2 = 0.9663 | 657.54
342.79 K, 19000 kPa, x2 = 0.9663 | 674.01
342.79 K, 20022 kPa, x2 = 0.9663 | 691.29
342.79 K, 21024 kPa, x2 = 0.9663 | 706.16
342.79 K, 22022 kPa, x2 = 0.9663 | 719.34
342.79 K, 23022 kPa, x2 = 0.9663 | 731.24
342.79 K, 24017 kPa, x2 = 0.9663 | 741.98
342.79 K, 25006 kPa, x2 = 0.9663 | 751.96
342.84 K, 13020 kPa, x2 = 0.8114 | 721.51
342.84 K, 14001 kPa, x2 = 0.8114 | 726.31
342.84 K, 15022 kPa, x2 = 0.8114 | 730.92
342.84 K, 16041 kPa, x2 = 0.8114 | 735.26
342.84 K, 17013 kPa, x2 = 0.8114 | 739.14
342.84 K, 18018 kPa, x2 = 0.8114 | 742.96
342.84 K, 19020 kPa, x2 = 0.8114 | 746.57
342.84 K, 20008 kPa, x2 = 0.8114 | 749.98
342.84 K, 21023 kPa, x2 = 0.8114 | 753.35
342.84 K, 22003 kPa, x2 = 0.8114 | 756.46
342.84 K, 23041 kPa, x2 = 0.8114 | 759.67
342.84 K, 24026 kPa, x2 = 0.8114 | 762.58
342.84 K, 25034 kPa, x2 = 0.8114 | 765.48
342.86 K, 2043 kPa, x2 = 0.0551 | 694.82
342.86 K, 3006 kPa, x2 = 0.0551 | 695.92
342.86 K, 4043 kPa, x2 = 0.0551 | 696.93
342.86 K, 5044 kPa, x2 = 0.0551 | 697.98
342.86 K, 6046 kPa, x2 = 0.0551 | 699.02
342.86 K, 6984 kPa, x2 = 0.0551 | 699.98
342.86 K, 8003 kPa, x2 = 0.0551 | 701
342.86 K, 8999 kPa, x2 = 0.0551 | 702.09
342.86 K, 10007 kPa, x2 = 0.0551 | 702.98
342.86 K, 11044 kPa, x2 = 0.0551 | 703.97
342.86 K, 11996 kPa, x2 = 0.0551 | 704.89
342.86 K, 13021 kPa, x2 = 0.0551 | 705.84
342.86 K, 13997 kPa, x2 = 0.0551 | 706.74
342.86 K, 15043 kPa, x2 = 0.0551 | 707.69
342.86 K, 16022 kPa, x2 = 0.0551 | 708.54
342.86 K, 17001 kPa, x2 = 0.0551 | 709.54
342.86 K, 17984 kPa, x2 = 0.0551 | 710.28
342.86 K, 19042 kPa, x2 = 0.0551 | 711.19
342.86 K, 20017 kPa, x2 = 0.0551 | 712.03
342.86 K, 21054 kPa, x2 = 0.0551 | 713.1
342.86 K, 22022 kPa, x2 = 0.0551 | 713.72
342.86 K, 23029 kPa, x2 = 0.0551 | 714.55
342.86 K, 24018 kPa, x2 = 0.0551 | 715.37
342.86 K, 25025 kPa, x2 = 0.0551 | 716.21
342.87 K, 5031 kPa, x2 = 0.2369 | 702.48
342.87 K, 6026 kPa, x2 = 0.2369 | 703.7
342.87 K, 7027 kPa, x2 = 0.4536 | 711.28
342.87 K, 7029 kPa, x2 = 0.2369 | 704.93
342.87 K, 8006 kPa, x2 = 0.2369 | 706.09
342.87 K, 8024 kPa, x2 = 0.4536 | 712.92
342.87 K, 9027 kPa, x2 = 0.4536 | 714.5
342.87 K, 9030 kPa, x2 = 0.2369 | 707.28
342.87 K, 10014 kPa, x2 = 0.4536 | 716.02
342.87 K, 10017 kPa, x2 = 0.2369 | 708.4
342.87 K, 11019 kPa, x2 = 0.2369 | 709.54
342.87 K, 11025 kPa, x2 = 0.4536 | 717.56
342.87 K, 12003 kPa, x2 = 0.2369 | 710.62
342.87 K, 12015 kPa, x2 = 0.4536 | 719.02
342.87 K, 13006 kPa, x2 = 0.4536 | 720.46
342.87 K, 13017 kPa, x2 = 0.2369 | 711.73
342.87 K, 14013 kPa, x2 = 0.2369 | 712.79
342.87 K, 14013 kPa, x2 = 0.4536 | 721.87
342.87 K, 15001 kPa, x2 = 0.4536 | 723.23
342.87 K, 15021 kPa, x2 = 0.2369 | 713.84
342.87 K, 16004 kPa, x2 = 0.2369 | 714.86
342.87 K, 16029 kPa, x2 = 0.4536 | 724.63
342.87 K, 17018 kPa, x2 = 0.2369 | 715.9
342.87 K, 17019 kPa, x2 = 0.4536 | 725.94
342.87 K, 18016 kPa, x2 = 0.2369 | 716.89
342.87 K, 18026 kPa, x2 = 0.4536 | 727.26
342.87 K, 19005 kPa, x2 = 0.2369 | 717.86
342.87 K, 19018 kPa, x2 = 0.4536 | 728.54
342.87 K, 20000 kPa, x2 = 0.2369 | 718.83
342.87 K, 20000 kPa, x2 = 0.4536 | 729.75
342.87 K, 21007 kPa, x2 = 0.4536 | 731.02
342.87 K, 21023 kPa, x2 = 0.2369 | 719.83
342.87 K, 22008 kPa, x2 = 0.2369 | 720.78
342.87 K, 22021 kPa, x2 = 0.4536 | 732.28
342.87 K, 23029 kPa, x2 = 0.2369 | 721.76
342.87 K, 23032 kPa, x2 = 0.4536 | 733.5
342.87 K, 23992 kPa, x2 = 0.2369 | 722.74
342.87 K, 24017 kPa, x2 = 0.4536 | 734.7
342.87 K, 25008 kPa, x2 = 0.2369 | 723.65
342.87 K, 25029 kPa, x2 = 0.4536 | 735.91
352.75 K, 14010 kPa, x2 = 0.9663 | 449.95
352.75 K, 15010 kPa, x2 = 0.9663 | 494.4
352.75 K, 16020 kPa, x2 = 0.9663 | 532.74
352.75 K, 17024 kPa, x2 = 0.9663 | 566.61
352.75 K, 18026 kPa, x2 = 0.9663 | 594.54
352.75 K, 19015 kPa, x2 = 0.9663 | 618.22
352.75 K, 20016 kPa, x2 = 0.9663 | 638.64
352.75 K, 21018 kPa, x2 = 0.9663 | 656.61
352.75 K, 22006 kPa, x2 = 0.9663 | 672.26
352.75 K, 23021 kPa, x2 = 0.9663 | 686.58
352.75 K, 24018 kPa, x2 = 0.9663 | 699.34
352.75 K, 25017 kPa, x2 = 0.9663 | 710.94
352.76 K, 14034 kPa, x2 = 0.8114 | 701.72
352.76 K, 15050 kPa, x2 = 0.8114 | 707.51
352.76 K, 15994 kPa, x2 = 0.8114 | 712.45
352.76 K, 17009 kPa, x2 = 0.8114 | 717.35
352.76 K, 18024 kPa, x2 = 0.8114 | 722.02
352.76 K, 19033 kPa, x2 = 0.8114 | 726.33
352.76 K, 20039 kPa, x2 = 0.8114 | 730.42
352.76 K, 21009 kPa, x2 = 0.8114 | 734.16
352.76 K, 22013 kPa, x2 = 0.8114 | 737.84
352.76 K, 23004 kPa, x2 = 0.8114 | 741.32
352.76 K, 24035 kPa, x2 = 0.8114 | 744.84
352.76 K, 25042 kPa, x2 = 0.8114 | 748.08
352.78 K, 2008 kPa, x2 = 0.0551 | 686.89
352.78 K, 3010 kPa, x2 = 0.0551 | 688.04
352.78 K, 4018 kPa, x2 = 0.0551 | 689.18
352.78 K, 5014 kPa, x2 = 0.0551 | 690.28
352.78 K, 6015 kPa, x2 = 0.0551 | 691.42
352.78 K, 7011 kPa, x2 = 0.0551 | 692.46
352.78 K, 8024 kPa, x2 = 0.0551 | 693.62
352.78 K, 8988 kPa, x2 = 0.0551 | 694.56
352.78 K, 10035 kPa, x2 = 0.0551 | 695.65
352.78 K, 11021 kPa, x2 = 0.0551 | 696.68

From the NIST ThermoML archive (doi:10.1021/je050020m)
